This note sets out measurements from patent US5789405A, “Oxaspiro(2,5)octane derivative” (Fujisawa Pharmaceutical Co., Ltd., priority 1988, dated 1998).

≈ marks a conversion by molar mass, not a printed value.

The test system of this assay is Endothelial cells from human umbilical vein (HUVEC). In words: Test effect on endothelial cell growth (HUVEC proliferation, MTT method). The note with it: 120 h, 5 days incubation at 37° C., graphically determined, read-out: IC50 (50% inhibition doses of the test compound to endothelial cell growth). Format: cell-based. As for the experimental part: Test effect of the object compound (I) on endothelial cell growth
Endothelial cells from human umbilical vein (HUVEC) were used for this experiment.
HUVEC (2×10^3 cells per well) were plated on 96 wells microtiter plates previously coated with human fibronectin and incubated with MCDB 151 [GIBCO] medium supplemented with 15% FBS (fetal bovine serum), […] ECGS (Endothelial cell growth supplement), 10 μg/ml heparin in the presence of the test compound at 37° C. under 5% CO2 in the air for 5 days. At the end of the experiments, the growth rate of HUVEC was measured according to the MTT method [Cancer treatment Reports 71, 1141~1149 (1987)].
IC50 values [50% inhibition doses of the test compound to endothelial cell growth) of the test compound were graphically determined and are shown in the following table.
In general terms: Formazan colour is commonly taken as a measure of viable cells.

Turning to `CNC(=O)OC1CCC2(CO2)C(C2(C)OC2CC=C(C)C)C1OC` (centres unmarked), the IC50 (in general, the concentration that inhibits the measured activity by half) came to 0.21 ng/mL (≈ 0.619 nM). Regarding `COC1C(OC(=O)N2CCOCC2)CCC2(CO2)C1C1(C)OC1CC=C(C)C` (centres unmarked), the IC50 came to 0.62 ng/mL (≈ 1.57 nM).
